Measured values from patent US20110319416A1, “Subunit Selective NMDA Receptor Antagonists For The Treatment Of Neurological Conditions” (EMORY UNIVERSITY, priority 2009, published 2011).
Like-named read-outs stand apart in the source and are kept apart here.

Assays:
NR1/NR2A = NR1/NR2A (Rattus norvegicus, UniProt P35439+Q00959); experiment: Two electrode voltage clamp, Xenopus oocytes expressing recombinant NR1/NR2A; type: cell-based; details: for remaining activity at 100 µM: read-out: 2A percent effect at the maximum tested concentration
Chain of NR1/NR2A (Q00959 23-1464, other chains not shown): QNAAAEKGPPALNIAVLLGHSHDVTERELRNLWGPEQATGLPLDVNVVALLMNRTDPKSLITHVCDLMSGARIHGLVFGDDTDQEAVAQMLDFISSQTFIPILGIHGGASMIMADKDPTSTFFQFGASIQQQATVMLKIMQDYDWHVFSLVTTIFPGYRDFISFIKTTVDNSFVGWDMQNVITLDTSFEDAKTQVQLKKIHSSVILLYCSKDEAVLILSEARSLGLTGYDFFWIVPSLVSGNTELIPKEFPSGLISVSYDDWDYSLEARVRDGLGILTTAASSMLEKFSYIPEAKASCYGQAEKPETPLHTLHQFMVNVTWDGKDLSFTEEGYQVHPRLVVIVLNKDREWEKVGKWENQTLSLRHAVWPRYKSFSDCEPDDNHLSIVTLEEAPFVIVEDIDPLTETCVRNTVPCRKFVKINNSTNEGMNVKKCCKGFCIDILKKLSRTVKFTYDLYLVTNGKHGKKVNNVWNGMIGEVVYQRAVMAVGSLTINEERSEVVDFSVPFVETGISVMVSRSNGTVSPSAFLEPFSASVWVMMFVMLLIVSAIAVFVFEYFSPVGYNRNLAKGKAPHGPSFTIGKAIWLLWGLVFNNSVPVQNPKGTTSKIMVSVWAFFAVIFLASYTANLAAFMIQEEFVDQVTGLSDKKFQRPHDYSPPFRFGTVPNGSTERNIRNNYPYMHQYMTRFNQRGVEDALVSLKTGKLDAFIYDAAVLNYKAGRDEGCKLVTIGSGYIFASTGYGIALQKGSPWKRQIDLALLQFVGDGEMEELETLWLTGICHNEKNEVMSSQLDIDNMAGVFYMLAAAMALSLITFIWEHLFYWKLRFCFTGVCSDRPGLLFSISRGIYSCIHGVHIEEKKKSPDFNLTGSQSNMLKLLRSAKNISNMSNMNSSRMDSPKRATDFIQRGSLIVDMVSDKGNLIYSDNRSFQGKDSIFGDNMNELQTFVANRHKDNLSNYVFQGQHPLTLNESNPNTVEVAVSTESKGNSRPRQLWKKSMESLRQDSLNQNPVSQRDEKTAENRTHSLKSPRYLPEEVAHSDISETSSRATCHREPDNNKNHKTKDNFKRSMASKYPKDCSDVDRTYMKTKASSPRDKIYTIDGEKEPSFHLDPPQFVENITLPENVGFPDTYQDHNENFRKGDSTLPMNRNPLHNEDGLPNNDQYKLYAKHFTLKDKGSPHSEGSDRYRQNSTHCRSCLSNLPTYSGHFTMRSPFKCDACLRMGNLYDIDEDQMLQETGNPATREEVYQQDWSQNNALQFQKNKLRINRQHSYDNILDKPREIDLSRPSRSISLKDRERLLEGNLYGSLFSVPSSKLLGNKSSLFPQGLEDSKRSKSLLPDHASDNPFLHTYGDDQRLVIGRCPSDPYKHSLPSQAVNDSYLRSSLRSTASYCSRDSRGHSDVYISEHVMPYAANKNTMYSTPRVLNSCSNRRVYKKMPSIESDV
Procedure: (§1) Quality of synthesized cRNA was assessed by gel electrophoresis, and quantity was estimated by spectroscopy and gel electrophoresis. Stage V and VI oocytes were surgically removed from the ovaries of large, well-fed and healthy Xenopus laevis anesthetized with 3-amino-benzoic acid ethyl ester (3 gm/l) as previously described. Clusters of isolated oocytes were incubated with 292 U/ml Worthington (Freehold, N.J.) type IV collagenase or 1.3 mg/ml collagenase (Life Technologies, Gaithersburg, MD; 17018-029) for 2 hr in Ca^2+-free solution comprised of (in mM) 115 NaCl, 2.5 KCl, and 10 HEPES, pH 7.5, with slow agitation to remove the follicular cell layer. Oocytes were then washed extensively in the same solution supplemented with 1.8 mM CaCl2 and maintained in Barth's solution comprised of (in mM): 88 NaCl, 1 KCl, 2.4 NaHCO3, 10 HEPES, 0.82 MgSO4, 0.33 Ca(NO3)2, and 0.91 CaCl2 and supplemented with 100 μg/m1 gentamycin, 10 μg/ml streptomycin, and 10 μg/ml penicillin. Oocytes were manually defolliculated and injected within 24 hrs of isolation with 3-5 ng of NR1 subunit cRNA and 7-10 ng of NR2 cRNA subunit in a 50 nl volume, or 5-10 ng of AMPA or kainate receptor cRNAs in a 50 nl volume, and incubated in Barth's solution at 18° C. for 1-7 d. Glass injection pipettes had tip sizes ranging from 10-20 microns, and were backfilled with mineral oil.
(§2) Two electrode voltage-clamp recordings were made 2-7 days post-injection as previously described. Oocytes were placed in a dual-track plexi-glass recording chamber with a single perfusion line that splits in a Y-configuration to perfuse two oocytes. Dual recordings were made at room temperature (23° C.) using two Warner OC725B two-electrode voltage clamp amplifiers, arranged as recommended by the manufacturer. Glass microelectrodes (1-10 Megaohms) were filled with 300 mM KCl (voltage electrode) or 3 M KCl (current electrode). The bath clamps communicated across silver chloride wires placed into each side of the recording chamber, both of which were assumed to be at a reference potential of 0 mV. Oocytes were perfused with a solution comprised of (in mM) 90 NaCl, 1 KCl, 10 HEPES, and 0.5 BaCl2; pH was adjusted by addition of 1-3 M NaOH of HC1 to 7.4. Oocytes were recorded under voltage clamp at −40 mV. […] In some experiments, 10 μM EDTA was obtained by adding a 1:1000 dilution of 10 mM EDTA, in order to chelate contaminant divalent ions such as Zn^2+. […] Concentration effect curves consisting of 4 to 8 concentrations were obtained in this manner. The baseline leak current at −40 mV was measured before and after recording, and the full recording linearly corrected for any change in leak current. […] Each experiment consisted of recordings from 3 to 10 oocytes obtained from a single frog. Results from multiple experiments were pooled, and the average percent responses at antagonist concentrations were fitted by the equation,
(§3) Percent Response=(100−minimum)/(1+([conc]/IC50)nH)+minimum

NR1/NR2B = NR1/NR2B (Rattus norvegicus, UniProt P35439+Q00960); experiment: Two electrode voltage clamp, Xenopus oocytes expressing recombinant NR1/NR2B; type: cell-based; details: for remaining activity at 100 µM: read-out: 2B percent effect at the maximum tested concentration
Chain of NR1/NR2B (Q00960 27-1482, other chains not shown): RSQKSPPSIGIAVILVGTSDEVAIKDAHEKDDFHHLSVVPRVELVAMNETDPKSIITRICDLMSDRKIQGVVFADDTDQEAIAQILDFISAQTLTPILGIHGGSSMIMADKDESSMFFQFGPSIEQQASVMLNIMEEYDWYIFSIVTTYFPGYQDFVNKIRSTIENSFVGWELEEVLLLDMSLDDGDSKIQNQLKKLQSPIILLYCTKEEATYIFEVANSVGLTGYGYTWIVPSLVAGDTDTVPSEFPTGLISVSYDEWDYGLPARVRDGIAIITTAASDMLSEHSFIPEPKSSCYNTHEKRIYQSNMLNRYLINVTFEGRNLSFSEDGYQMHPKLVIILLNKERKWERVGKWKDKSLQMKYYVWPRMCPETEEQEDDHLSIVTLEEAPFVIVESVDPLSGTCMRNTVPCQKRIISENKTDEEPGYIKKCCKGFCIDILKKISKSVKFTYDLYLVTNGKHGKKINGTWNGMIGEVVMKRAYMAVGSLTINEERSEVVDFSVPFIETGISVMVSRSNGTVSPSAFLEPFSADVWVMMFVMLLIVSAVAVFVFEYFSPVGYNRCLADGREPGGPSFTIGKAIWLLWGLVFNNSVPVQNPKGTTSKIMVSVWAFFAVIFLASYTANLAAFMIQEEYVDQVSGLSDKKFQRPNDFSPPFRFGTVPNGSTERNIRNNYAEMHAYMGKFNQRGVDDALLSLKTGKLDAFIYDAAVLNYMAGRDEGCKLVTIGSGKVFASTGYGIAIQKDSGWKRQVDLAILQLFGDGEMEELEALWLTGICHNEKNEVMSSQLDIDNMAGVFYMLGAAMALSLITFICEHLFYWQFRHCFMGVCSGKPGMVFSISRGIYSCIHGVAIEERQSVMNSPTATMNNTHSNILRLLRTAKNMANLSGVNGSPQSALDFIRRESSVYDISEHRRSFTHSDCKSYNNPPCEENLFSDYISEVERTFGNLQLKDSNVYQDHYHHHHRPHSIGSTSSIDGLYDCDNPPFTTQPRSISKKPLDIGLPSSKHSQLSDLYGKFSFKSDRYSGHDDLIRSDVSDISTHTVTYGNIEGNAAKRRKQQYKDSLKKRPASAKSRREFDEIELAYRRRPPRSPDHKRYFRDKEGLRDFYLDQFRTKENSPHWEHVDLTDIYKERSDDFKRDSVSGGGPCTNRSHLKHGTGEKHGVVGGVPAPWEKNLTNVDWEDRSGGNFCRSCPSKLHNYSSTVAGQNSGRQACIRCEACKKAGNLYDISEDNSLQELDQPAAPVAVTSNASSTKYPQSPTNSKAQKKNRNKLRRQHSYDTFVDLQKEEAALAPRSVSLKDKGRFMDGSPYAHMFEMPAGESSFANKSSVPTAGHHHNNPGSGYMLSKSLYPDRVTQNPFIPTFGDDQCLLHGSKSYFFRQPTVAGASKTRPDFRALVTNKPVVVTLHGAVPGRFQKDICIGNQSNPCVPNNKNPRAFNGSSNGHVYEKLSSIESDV
Procedure: as §1, §2, §3

NR1/NR2C = NR1/NR2C (Rattus norvegicus, UniProt P35439+Q00961); experiment: Two electrode voltage clamp, Xenopus oocytes expressing recombinant NR1/NR2C; type: cell-based
Chain of NR1/NR2C (Q00961 20-1237, other chains not shown): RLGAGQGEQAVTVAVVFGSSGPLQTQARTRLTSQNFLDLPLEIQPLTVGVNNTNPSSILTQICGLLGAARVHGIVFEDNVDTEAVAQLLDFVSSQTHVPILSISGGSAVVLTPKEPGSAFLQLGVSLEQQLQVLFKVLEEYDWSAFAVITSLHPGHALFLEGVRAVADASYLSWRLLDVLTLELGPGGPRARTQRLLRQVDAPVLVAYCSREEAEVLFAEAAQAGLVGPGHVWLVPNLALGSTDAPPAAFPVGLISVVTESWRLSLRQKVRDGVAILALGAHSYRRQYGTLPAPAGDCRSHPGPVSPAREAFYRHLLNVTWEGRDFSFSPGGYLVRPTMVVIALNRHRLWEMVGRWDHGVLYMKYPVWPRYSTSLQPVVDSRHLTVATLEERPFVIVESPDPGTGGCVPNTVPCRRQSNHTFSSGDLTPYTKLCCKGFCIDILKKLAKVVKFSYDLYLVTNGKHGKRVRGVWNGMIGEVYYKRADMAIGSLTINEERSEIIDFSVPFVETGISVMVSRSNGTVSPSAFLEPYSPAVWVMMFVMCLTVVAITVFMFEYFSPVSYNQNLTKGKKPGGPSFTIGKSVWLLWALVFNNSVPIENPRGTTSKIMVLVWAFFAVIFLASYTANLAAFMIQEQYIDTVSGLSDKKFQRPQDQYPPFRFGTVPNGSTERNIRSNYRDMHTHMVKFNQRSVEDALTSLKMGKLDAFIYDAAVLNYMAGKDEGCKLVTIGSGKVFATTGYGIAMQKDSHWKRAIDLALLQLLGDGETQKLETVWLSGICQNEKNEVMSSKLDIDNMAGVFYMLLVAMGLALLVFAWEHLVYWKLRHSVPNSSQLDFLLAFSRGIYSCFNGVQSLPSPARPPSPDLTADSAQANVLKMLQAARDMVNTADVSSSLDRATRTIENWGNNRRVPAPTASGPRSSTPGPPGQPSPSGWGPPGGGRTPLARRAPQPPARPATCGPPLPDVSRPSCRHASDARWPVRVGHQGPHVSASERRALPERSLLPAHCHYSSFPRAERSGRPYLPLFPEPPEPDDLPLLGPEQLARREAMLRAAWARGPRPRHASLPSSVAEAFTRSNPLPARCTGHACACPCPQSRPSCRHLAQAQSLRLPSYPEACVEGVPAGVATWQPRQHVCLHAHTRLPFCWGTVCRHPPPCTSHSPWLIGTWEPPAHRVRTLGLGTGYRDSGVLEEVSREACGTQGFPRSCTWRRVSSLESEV
Procedure: as §1, §2, §3

NR1/NR2D [1] = biological target: NR1/NR2D (Rattus norvegicus, UniProt P35439+Q62645); experiment: Two electrode voltage clamp, Xenopus oocytes expressing recombinant NR1/NR2D; type: cell-based
Procedure: as §1, §2, §3

GluR1 = GluR1 (Rattus norvegicus, UniProt P19490); experiment: Two electrode voltage clamp, Xenopus oocytes expressing GluR1; type: cell-based; details: read-out: GluR1 percent effect at the maximum tested concentration
Chain of GluR1 (P19490 19-907): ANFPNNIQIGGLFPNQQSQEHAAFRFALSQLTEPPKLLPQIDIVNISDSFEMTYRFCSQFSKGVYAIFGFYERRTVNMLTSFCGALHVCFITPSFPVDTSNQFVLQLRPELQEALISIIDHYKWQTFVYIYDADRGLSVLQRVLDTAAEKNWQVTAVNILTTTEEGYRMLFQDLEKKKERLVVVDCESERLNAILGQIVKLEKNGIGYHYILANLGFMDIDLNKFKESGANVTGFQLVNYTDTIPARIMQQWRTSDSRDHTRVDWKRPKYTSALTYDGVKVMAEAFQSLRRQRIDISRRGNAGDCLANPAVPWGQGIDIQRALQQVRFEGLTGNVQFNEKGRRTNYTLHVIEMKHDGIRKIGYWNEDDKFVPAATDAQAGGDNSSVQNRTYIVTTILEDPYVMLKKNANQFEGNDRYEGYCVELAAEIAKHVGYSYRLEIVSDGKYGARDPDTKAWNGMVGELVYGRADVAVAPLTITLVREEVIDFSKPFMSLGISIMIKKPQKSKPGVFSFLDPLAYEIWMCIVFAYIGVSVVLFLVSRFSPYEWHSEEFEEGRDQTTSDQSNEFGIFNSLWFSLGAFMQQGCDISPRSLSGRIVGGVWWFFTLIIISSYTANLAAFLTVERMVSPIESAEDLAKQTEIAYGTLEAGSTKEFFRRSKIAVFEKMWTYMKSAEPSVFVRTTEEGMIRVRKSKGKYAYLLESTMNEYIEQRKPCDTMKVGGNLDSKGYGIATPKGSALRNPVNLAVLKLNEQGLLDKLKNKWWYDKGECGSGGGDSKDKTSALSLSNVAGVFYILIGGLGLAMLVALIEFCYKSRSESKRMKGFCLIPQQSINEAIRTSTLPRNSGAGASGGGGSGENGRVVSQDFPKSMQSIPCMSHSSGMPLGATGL
Procedure: as §1, §2, §3

NR2C = NR2C (Homo sapiens, UniProt Q05586+Q14957); details: non-competitive and uncompetitive antagonists; read-out: 2C (μM) IC50; cited from earlier work
NR2D = NR2D (Homo sapiens, UniProt O15399+Q05586); details: cited from earlier work
NR1/NR2D [2] = biological target: T1, NR1/NR2D (Rattus norvegicus, UniProt Q62645); experiment: Ca2+ fluorescence screening assay in NR1/NR2D expressing BHK cells (96 well); type: cell-based; design: expressed in transfected cells; host or cells: BHK-21 cells; NR1 induced by doxycyclin (Tet-On), NR2D constitutive
NR2B = NR2B (Homo sapiens, UniProt Q05586+Q13224); details: non-competitive and uncompetitive antagonists; read-out: 2B (μM) IC50; cited from earlier work
NR1/NR2D [3] = biological target: T1, NR1/NR2D; experiment: Two electrode voltage clamp, Xenopus oocytes expressing recombinant NR1/NR2D; type: cell-based
Procedure: as §1, §2, §3

[4] = logistic fit, minimum forced to 0, read-out: 2C IC50
[5] = logistic fit, minimum forced to 0, read-out: 2D IC50
[6] = 10 μM test compound, 100 μM glutamate/1 mM glycine
[7] = logistic fit, minimum forced to 0, read-out: 2A IC50
[8] = logistic fit, minimum forced to 0, read-out: 2B IC50

Molecule: CCN(CC)C(=O)Oc1ccc(C(=O)Nc2cccc3ccccc23)cc1 [1063-2]
- IC50 (NR1/NR2A): 433 µM
- IC50 (NR1/NR2B): 141 µM
- IC50 (NR1/NR2C): 6 µM
- IC50 (NR1/NR2D [1]): 4 µM
- remaining activity at 100 µM (GluR1): 118%

Molecule: CC(C)N(C(=O)Oc1ccc(C(=O)Nc2cccc3ccccc23)cc1)C(C)C [1063-4]
- IC50 (NR1/NR2A): 874 µM
- IC50 (NR1/NR2B): 158 µM
- IC50 (NR1/NR2C): 8 µM
- IC50 (NR1/NR2D [1]): 5 µM
- remaining activity at 100 µM (GluR1): 130%

Molecule: C=CCN(CC=C)C(=O)Oc1ccc(C(=O)Nc2cccc3ccccc23)cc1 [1063-5]
- remaining activity at 100 µM (NR1/NR2A): 104%
- IC50 (NR1/NR2B): 719 µM
- IC50 (NR1/NR2C): 42 µM
- IC50 (NR1/NR2D [1]): 28 µM
- remaining activity at 100 µM (GluR1): 103%

Molecule: CC(C)N(C(=O)Oc1ccc(C(=O)Oc2ccc3cccc(N)c3c2)cc1)C(C)C [1063-13]
- remaining activity at 100 µM (NR1/NR2A): 89%
- remaining activity at 100 µM (NR1/NR2B): 84%
- IC50 (NR1/NR2C): 385 µM
- IC50 (NR1/NR2D [1]): 55 µM
- remaining activity at 100 µM (GluR1): 117%

Molecule: CCN(CC)C(=O)Oc1ccc(C(=O)Nc2cccc3cc[nH]c23)cc1 [1063-20]
- IC50 (NR1/NR2A): 2420 µM
- IC50 (NR1/NR2B): 933 µM
- IC50 (NR1/NR2C): 5 µM
- IC50 (NR1/NR2D [1]): 3 µM
- remaining activity at 100 µM (GluR1): 92%

Molecule: CCN(CC)C(=S)Oc1ccc(C(=O)Nc2cccc3cc[nH]c23)cc1 [1063-21]
- remaining activity at 100 µM (NR1/NR2A; at 100 μM): 94%
- remaining activity at 100 µM (NR1/NR2B; at 100 μM): 78%
- IC50 (NR1/NR2C; [4]): 15 µM
- IC50 (NR1/NR2D [1]; [5]): 4 µM
- remaining activity at 100 µM (GluR1; at 100 μM): 102%

Molecule: CCN(CC)C(=O)Oc1ccc(C(=O)Nc2cc(C)cc3c2NCC3)cc1 [1063-32]
- remaining activity at 100 µM (NR1/NR2A): 81%
- IC50 (NR1/NR2B): 215 µM
- IC50 (NR1/NR2C): 20 µM
- IC50 (NR1/NR2D [1]): 8 µM

Molecule: CCN(CC)C(=O)Oc1ccc(C(=O)Nc2cc(C)cc3c(C)c[nH]c23)cc1 [1063-34]
- remaining activity at 100 µM (NR1/NR2A): 71%
- IC50 (NR1/NR2B): 365 µM
- IC50 (NR1/NR2C): 102 µM
- IC50 (NR1/NR2D [1]): 93 µM
- remaining activity at 100 µM (GluR1): 85%

Molecule: CCN(CC)C(=O)Oc1ccc(C(=O)Nc2cc(C(=O)OC)cc3c(C)c[nH]c23)cc1 [1063-35]
- IC50 (NR1/NR2A): 177 µM
- IC50 (NR1/NR2B): 238 µM
- remaining activity at 100 µM (NR1/NR2C; read-out: 2C percent effect at the maximum tested concentration): 77%
- remaining activity at 100 µM (NR1/NR2D [1]; read-out: 2D percent effect at the maximum tested concentration): 80%
- remaining activity at 100 µM (GluR1): 97%

Molecule: C[C@]12N[C@H](Cc3ccccc31)c1ccccc12 [(—)MK-801]
- IC50 (NR2C): 0.04 µM
- IC50 (NR2D; non-competitive and uncompetitive antagonists, read-out: 2D (μM) IC50): 0.17 µM
- identification in test screen of NR1/NR2D expressing BHK cells (NR1/NR2D [2]; [6]): successfully identified

Molecule: CCc1cccc(N(C)C(N)=Nc2cccc3ccccc23)c1 [CNS-1102]
- identification in test screen of NR1/NR2D expressing BHK cells (NR1/NR2D [2]; [6]): successfully identified

Molecule: C=CCN1CCC2(C)c3cc(O)ccc3CC1C2C (stereo not shown) [N-allylnormetazoline]
- identification in test screen of NR1/NR2D expressing BHK cells (NR1/NR2D [2]; [6]): successfully identified

Molecule: O=C(O)C1NCCN(C(=O)c2ccc3c(ccc4ccccc43)c2)C1C(=O)O (stereo not shown) [PPDA, 1-(phenanthrene-2-carbonyl)piperazin-2,3, dicarboxylic acid]
- selectivity for NR2D over NR2A (NR2D; estimated Ki): ~5 fold

Molecule: N=C(N)c1ccc(OCCCCCOc2ccc(C(=N)N)cc2)cc1 [Pentamidine]
- IC50 (NR2B): 1.5 µM

Molecule: O=C(O)CCC(=O)N1N=C(c2c(-c3ccccc3)c3cc(Br)ccc3[nH]c2=O)CC1c1ccc(Br)cc1 (stereo not shown) [compound 997]
- IC50 (NR1/NR2A; [7]): 78 µM
- IC50 (NR1/NR2B; [8]): 19 µM
- IC50 (NR1/NR2C; [4]): 5 µM
- IC50 (NR1/NR2D [1]; [5]): 3 µM

Molecule: COc1ccc(C2CC(c3c(-c4ccccc4)c4cc(Br)ccc4[nH]c3=O)=NN2C(=O)CCC(=O)O)cc1 (stereo not shown) [compound 1128]
- 2D percent response at the maximum tested concentration (NR1/NR2D [3]; at 100 μM): 90% at 100 μM

Molecule: O=C(O)CCC(=O)N1N=C(c2c(-c3ccccc3)c3cc(Cl)ccc3[nH]c2=O)CC1c1cccc(Br)c1 (stereo not shown) [compound 1176]
- IC50 (NR1/NR2A; [7]): 24 µM
- IC50 (NR1/NR2B; [8]): 30 µM
- IC50 (NR1/NR2C; [4]): 7 µM
- IC50 (NR1/NR2D [1]; [5]): 4 µM

Molecule: Cc1ccc2cc(C3CC(c4ccc(Br)cc4)=NN3C(=O)CCC(=O)O)c(=O)[nH]c2c1 (stereo not shown) [compound 1177]
- 2D percent response at the maximum tested concentration (NR1/NR2D [3]; at 100 μM): 80% at 100 μM

Molecule: Cc1ccc(C2CC(c3c(-c4ccccc4)c4cc(Br)ccc4[nH]c3=O)=NN2C(=O)CCC(=O)O)cc1 (stereo not shown) [compound 1185]
- IC50 (NR1/NR2A; [7]): 140 µM
- IC50 (NR1/NR2B; [8]): 59 µM
- IC50 (NR1/NR2C; [4]): 16 µM
- IC50 (NR1/NR2D [1]; [5]): 9 µM

Molecule: O=C(O)CCC(=O)N1N=C(c2c(-c3ccccc3)c3cc(Br)ccc3[nH]c2=O)CC1c1ccccc1Cl (stereo not shown) [compound 1209]
- IC50 (NR1/NR2A; [7]): 79 µM
- IC50 (NR1/NR2B; [8]): 35 µM
- IC50 (NR1/NR2C; [4]): 22 µM
- IC50 (NR1/NR2D [1]; [5]): 13 µM

Molecule: O=c1[nH]c2ccc(Cl)cc2c(-c2ccccc2)c1C1=NNC(c2ccc(Br)cc2)C1 (stereo not shown) [compound 1249]
- 2D percent response at the maximum tested concentration (NR1/NR2D [3]): 79% at 30 μM

Molecule: CC(=O)N1N=C(c2c(-c3ccccc3)c3cc(C)ccc3[nH]c2=O)CC1c1ccc(Br)cc1 (stereo not shown) [compound 1250]
- 2D percent response at the maximum tested concentration (NR1/NR2D [3]): 81% at 30 μM

Molecule: CCN(CC)C(=S)Oc1ccc(C(=O)Nc2ccc(F)cc2)cc1 [compound 1379]
- remaining activity at 100 µM (NR1/NR2A; at 100 μM): 99%
- remaining activity at 100 µM (NR1/NR2B; at 100 μM): 88%
- IC50 (NR1/NR2C; [4]): 247 µM
- IC50 (NR1/NR2D [1]; [5]): 55 µM

Molecule: N[C@@H](CCC(=O)O)C(=O)O [glutamate, reference compound]
- EC50 (NR1/NR2D [3]; submicromolar, method not stated, read-out: EC50 for activation of NR2D-containing receptors): < 0.5 µM

Molecule: C=CCN1CC[C@]23CCCC[C@H]2[C@H]1Cc1ccc(O)cc13 [levallorphan]
- identification in test screen of NR1/NR2D expressing BHK cells (NR1/NR2D [2]; [6]): successfully identified

Molecule: CC12CC3CC(C)(C1)CC(N)(C3)C2 [memantine]
- identification in test screen of NR1/NR2D expressing BHK cells (NR1/NR2D [2]): successfully identified

Molecule: (+)MK-801
- identification in test screen of NR1/NR2D expressing BHK cells (NR1/NR2D [2]; [6]): successfully identified
